{"source": "paper PMC6008465", "about": "(British Journal of Cancer, 2018)", "key": {"[1]": {"settings": "preclinical; cited from earlier work"}, "[2]": {"tested_on": "metastatic BRAF-mutated or WT melanoma", "assay": "Part B tumour response (RECIST 1.0)", "format": "in vivo, human", "settings": "for Duration of SD: one patient; for Median (95% CI) duration of PFS / Median (95% CI) duration of SD: Kaplan-Meier estimate", "procedure": "In Part B, an adaptive study design was planned to define an optimal dosing schedule. […] One dose escalation (from 160 mg/m^2 to 320 mg/m^2) was allowed in Schedule II for MTD determination. […] Toxicity was managed as before. Up to 30 patients with BRAF-mutated melanoma and up to 29 patients with BRAF-WT melanoma were to be enrolled in Schedule I. Up to 30 patients were to be enrolled into Schedule II once the MTD was confirmed.\nEfficacy was assessed by tumour response determined by investigator review of computed tomography/magnetic resonance imaging scans using Response Evaluation Criteria in Solid tumours version 1.0 (RECIST).[17]"}, "[3]": {"settings": "Part B, BRAF-WT 320 mg/m^2 once weekly (n=7)"}, "[4]": {"settings": "Part B, BRAF-mutated 160 mg/m^2 twice weekly (n=3)"}, "[5]": {"settings": "Part B, BRAF-mutated 320 mg/m^2 once weekly (n=20)"}}, "note": "Marks after values point to notes of the source that are not given here."}
{"smiles": "CCNc1cc(O)c2c(c1)/C=C/C[C@H](O)[C@H](O)C(=O)/C=C\\[C@@H](C)[C@H](C)OC2=O", "note": "[E6201, (3S,4R,5Z,8S,9S,11E)-14-(ethylamino)-8,9,16-trihydroxy-3,4-dimethyl-3,4,9,19-tetrahydro-1H-2-benzoxacyclotetradecine-1,7 (8H)-dione]", "values": [{"measurement": "t1/2 of E6201", "setting": "[1]", "value": "3 to 6", "unit": "h"}, {"measurement": "Patients with PR / patients", "setting": "[2]; Part B, BRAF-WT", "value": "1/7"}, {"measurement": "Patients with SD / patients", "setting": "[2]; Part B, BRAF-WT", "value": "1/7"}, {"measurement": "Complete response (CR)", "setting": "[2]; [3]", "value": "0 n (%)"}, {"measurement": "Disease control rate (CR+PR+SD)", "setting": "[2]; [3]", "value": "2 (28.6) n (%)"}, {"measurement": "Not evaluable (NE)", "setting": "[2]; [3]", "value": "1 (14.3) n (%)"}, {"measurement": "Overall response rate (CR+PR)", "setting": "[2]; [3]", "value": "1 (14.3) n (%)"}, {"measurement": "Partial response (PR)", "setting": "[2]; [3]", "value": "1 (14.3)^b n (%)"}, {"measurement": "Progressive disease (PD)", "setting": "[2]; [3]", "value": "2 (28.6) n (%)"}, {"measurement": "Duration of SD", "setting": "[2]; Part B, BRAF-WT 320 mg/m^2 once weekly", "value": 4, "unit": "cycles"}, {"measurement": "Disease control rate (DCR; complete response + PR + SD)", "setting": "[2]; Part B, BRAF-WT melanoma (2/7)", "value": 28.6, "unit": "%"}, {"measurement": "Complete response (CR)", "setting": "[2]; [4]", "value": "0 n (%)"}, {"measurement": "Disease control rate (CR+PR+SD)", "setting": "[2]; [4]", "value": "1 (33.3) n (%)"}, {"measurement": "Not evaluable (NE)", "setting": "[2]; [4]", "value": "0 n (%)"}, {"measurement": "Overall response rate (CR+PR)", "setting": "[2]; [4]", "value": "0 n (%)"}, {"measurement": "Partial response (PR)", "setting": "[2]; [4]", "value": "0 n (%)"}, {"measurement": "Progressive disease (PD)", "setting": "[2]; [4]", "value": "1 (33.3) n (%)"}, {"measurement": "Median (95% CI) duration of PFS", "setting": "[2]; [4]", "value": "83.5 (29.0–138.0) days"}, {"measurement": "Median (95% CI) duration of SD", "setting": "[2]; [4]", "value": "138.0 (29.0–138.0) days"}, {"measurement": "Duration of SD", "setting": "[2]; Part B, BRAF-mutated 160 mg/m^2 twice weekly", "value": "> 4", "unit": "cycles"}, {"measurement": "Patients with SD for ≥4 cycles", "setting": "[2]; Part B, BRAF-mutated 320 mg/m^2 once weekly", "value": 5, "unit": "patients"}, {"measurement": "Complete response (CR)", "setting": "[2]; [5]", "value": "0 n (%)"}, {"measurement": "Disease control rate (CR+PR+SD)", "setting": "[2]; [5]", "value": "9 (45.0) n (%)"}, {"measurement": "Not evaluable (NE)", "setting": "[2]; [5]", "value": "1 (5.0) n (%)"}, {"measurement": "Overall response rate (CR+PR)", "setting": "[2]; [5]", "value": "2 (10.0) n (%)"}, {"measurement": "Partial response (PR)", "setting": "[2]; [5]", "value": "2 (10.0)^a n (%)"}, {"measurement": "Progressive disease (PD)", "setting": "[2]; [5]", "value": "6 (30.0) n (%)"}, {"measurement": "Median (95% CI) duration of PFS", "setting": "[2]; [5]", "value": "73.0 (26.0–166.0) days"}, {"measurement": "Median (95% CI) duration of SD", "setting": "[2]; [5]", "value": "73.0 (29.0–166.0) days"}, {"measurement": "Patients with PR / patients", "setting": "[2]; Part B, BRAF-mutated melanoma", "value": "2/23"}, {"measurement": "Patients with SD / patients", "setting": "[2]; Part B, BRAF-mutated melanoma", "value": "8/23"}, {"measurement": "Disease control rate (DCR; complete response + PR + SD)", "setting": "[2]; Part B, BRAF-mutated melanoma (10/23)", "value": 43.5, "unit": "%"}, {"measurement": "Complete response (CR)", "setting": "[2]; Part B, Total (N=30)", "value": "0 n (%)"}, {"measurement": "Disease control rate (CR+PR+SD)", "setting": "[2]; Part B, Total (N=30)", "value": "12 (40.0) n (%)"}, {"measurement": "Not evaluable (NE)", "setting": "[2]; Part B, Total (N=30)", "value": "2 (6.7) n (%)"}, {"measurement": "Overall response rate (CR+PR)", "setting": "[2]; Part B, Total (N=30)", "value": "3 (10.0) n (%)"}, {"measurement": "Partial response (PR)", "setting": "[2]; Part B, Total (N=30)", "value": "3 (10.0) n (%)"}, {"measurement": "Progressive disease (PD)", "setting": "[2]; Part B, Total (N=30)", "value": "9 (30.0) n (%)"}, {"measurement": "Number of partial responses (PR)", "setting": "[2]; Part B, all", "value": "three"}, {"measurement": "Patients with SD for ≥4 cycles (3.7 months)", "setting": "[2]; Part B, all groups", "value": "seven"}, {"measurement": "Number of partial responses (PR)", "setting": "[2]; Part B, BRAF-WT melanoma, 320 mg/m^2 once-weekly", "value": 1}, {"measurement": "Number of partial responses (PR)", "setting": "[2]; Part B, V600E BRAF-mutated melanoma, 320 mg/m^2 once-weekly", "value": 2}, {"measurement": "Response of brain metastases", "setting": "[2]; one patient with BRAF-mutated melanoma who achieved a PR", "value": "brain metastases that responded to treatment"}]}
